{"source": "paper PMC3091528", "about": "(Glycobiology, 2011)", "key": {"mouse LSECtin CRD": {"biological_target": "T1, mouse LSECtin CRD (Mus musculus, UniProt Q8BNX1)", "T1 sequence (Q8BNX1 161-294)": "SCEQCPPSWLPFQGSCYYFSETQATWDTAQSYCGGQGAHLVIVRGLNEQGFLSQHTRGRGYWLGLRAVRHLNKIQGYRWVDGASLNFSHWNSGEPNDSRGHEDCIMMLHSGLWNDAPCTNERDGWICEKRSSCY", "assay_type": "binding"}, "human LSECtin CRD": {"biological_target": "T2, human LSECtin CRD (Homo sapiens, UniProt Q6UXB4)", "T2 sequence (Q6UXB4 165-293 limits assumed)": "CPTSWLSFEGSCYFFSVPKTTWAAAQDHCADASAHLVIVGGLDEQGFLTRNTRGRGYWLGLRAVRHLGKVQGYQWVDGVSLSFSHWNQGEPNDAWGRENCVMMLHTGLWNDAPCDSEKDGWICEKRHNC", "assay_type": "binding"}}}
{"smiles": "CC(=O)N[C@H]1[C@H](O[C@@H]2C(O)O[C@H](CO)[C@@H](O)[C@@H]2O)O[C@H](CO)[C@@H](O)[C@@H]1O", "note": "(some centres unmarked) [GlcNAcβ1-2Man]", "values": [{"measurement": "Ki", "setting": "mouse LSECtin CRD", "value": "10.2 ± 0.8", "unit": "µM"}, {"measurement": "Ki", "setting": "human LSECtin CRD", "value": "1.1 ± 0.5", "unit": "µM"}]}
